Literature values in PubChem BioAssay AID1259409 (Chemical Carcinogenesis Research Information System (CCRIS), 2018).

System: rodent chemically induced tumor inhibition, incidence and multiplicity
Experiment: CCRIS tumor inhibitor studies

In the case of `NCCS`, the “tumour outcome (control, treated, inhibition, significance)” value (Carcinogen: N-METHYL-N'-NITRO-N-NITROSOGUANIDINE, 70-25-7, Dose [Inhibitor]: 0, 25 MG/KG IN 0.9% SALINE PLUS 2 MG/KG PROPANOLOL IN OLIVE OIL 1/2 D BEGINNING 1 WK POST LAST CARCINOGEN DOSE AND CONTI, Route [Inhibitor]: SUBCUTANEOUS, Species: RAT, Strain/Sex: WISTAR/MALE, Target Tissue: Type of Lesion: STOMACH: ADENOCARCINOMA, Dose [Carcinogen]: 100 UG/ML IN DRINKING WATER FOR 25 WK, Promoter: NONE USED) is given as 16/20 (80%), 2/22 (9%), 89%, p<0.001, the “tumour outcome (control, treated, inhibition, significance)” value (Carcinogen: N-METHYL-N'-NITRO-N-NITROSOGUANIDINE, 70-25-7, Dose [Inhibitor]: 0, 25 MG/KG IN 0.9% SALINE PLUS 50 MG/KG CIMETIDINE IN OLIVE OIL 1/2 D BEGINNING 1 WK POST LAST CARCINOGEN DOSE AND CONT, Route [Inhibitor]: SUBCUTANEOUS, Species: RAT, Strain/Sex: WISTAR/MALE, Target Tissue: Type of Lesion: STOMACH: ADENOCARCINOMA, Dose [Carcinogen]: 100 UG/ML IN DRINKING WATER FOR 25 WK, Promoter: NONE USED) is given as 16/20 (80%), 12/21 (57%), 29%, not significant and the “tumour outcome (control, treated, inhibition, significance)” value (Carcinogen: N-METHYL-N'-NITRO-N-NITROSOGUANIDINE, 70-25-7, Dose [Inhibitor]: 0, 25 MG/KG IN 1 ML/KG OLIVE OIL 1/2 D FOR STUDY DURATION BEGINNING POST CARCINOGEN TREATMENT (STUDY DURATION: 52 WK), Route [Inhibitor]: SUBCUTANEOUS, Species: RAT, Strain/Sex: WISTAR/MALE, Target Tissue: Type of Lesion: GLANDULAR STOMACH: ADENOCARCINOMA, Dose [Carcinogen]: 50 UG/ML DRINKING WATER FOR 25 WK) is given as 13/18 (72%), 6/20 (30%), 58%, p<0.05. The “tumour outcome (control, treated, inhibition, significance)” value (Carcinogen: N-METHYL-N'-NITRO-N-NITROSOGUANIDINE, 70-25-7, Dose [Inhibitor]: 0, 50 MG/KG IN 0.9% SALINE 1/2 D BEGINNING POST CARCINOGEN DOSE AND CONTINUING FOR DURATION OF STUDY (STUDY DURATION: 52, Route [Inhibitor]: SUBCUTANEOUS, Species: RAT, Strain/Sex: WISTAR/MALE, Target Tissue: Type of Lesion: STOMACH: ADENOCARCINOMA, Dose [Carcinogen]: 50 UG/ML DRINKING WATER FOR 25 WK, Promoter: NONE USED) was 12/19 (63%), 5/20 (25%), 58%, p<0.05, the “tumour outcome (control, treated, inhibition, significance)” value (Carcinogen: N-METHYL-N'-NITRO-N-NITROSOGUANIDINE, 70-25-7, Dose [Inhibitor]: 0, 280 MG/KG 1/2 D FOR STUDY DURATION (STUDY DURATION: 52 WK), Route [Inhibitor]: SUBCUTANEOUS, Species: RAT, Strain/Sex: WISTAR/MALE, Target Tissue: Type of Lesion: STOMACH: ADENOCARCINOMA, Dose [Carcinogen]: 50 UG/ML DRINKING WATER FOR 25 WK, Promoter: NONE USED) was 75%, 18%, 76%, p<0.01 and the “tumour outcome (control, treated, inhibition, significance)” value (Carcinogen: N-METHYL-N'-NITRO-N-NITROSOGUANIDINE, 70-25-7, Dose [Inhibitor]: 0.4% IN DIET FOR 26 WK GIVEN POST CARCINOGEN (STUDY DURATION: 52 WK), Route [Inhibitor]: ORAL, Species: RAT, Strain/Sex: WISTAR/MALE, Target Tissue: Type of Lesion: STOMACH: ADENOCARCINOMA, Dose [Carcinogen]: 50 UG/ML DRINKING WATER FOR 25 WK, Promoter: NONE USED) was 16/20 (80%), 9/20 (45%), 44%, p<0.05. The “tumour outcome (control, treated, inhibition, significance)” value (Carcinogen: TRANS-5-AMINO-3-[2-(5-NITRO-2-FURYL)VINYL]-1,2,4-OXADIAZOLE;SQL8506, 28754-68-9, Carcinogen: TRANS-5-AMINO-3-[2-(5-NITRO-2-FURYL)VINYL]-1,2,4-OXADIAZOLE;SQL8506, 28754-68-9, Dose [Inhibitor]: 210 MG/KG 16 HR BEFORE THE 1ST CARCINOGEN DOSE FOLLOWED BY IP INJECTIONS (210 MG/KG) IMMEDIATELY BEFORE EACH DOSE OF CAR, Route [Inhibitor]: INTRAMUSCULAR/INTRAPERITONEAL, Species: MOUSE, Strain/Sex: CD-1/FEMALE, Target Tissue: Type of Lesion: HEMATOPOIETIC: MYELOID LEUKEMIA, Dose [Carcinogen]: 1 G/KG 2/D FOR 5 D EVERY 4 WK FOR 3 COURSES TREATMENT, Promoter: NONE USED) was 7/137 (5%), 0/28 (0%), 100%, not calculated, the “tumour outcome (control, treated, inhibition, significance)” value (Carcinogen: TRANS-5-AMINO-3-[2-(5-NITRO-2-FURYL)VINYL]-1,2,4-OXADIAZOLE;SQL8506, 28754-68-9, Carcinogen: TRANS-5-AMINO-3-[2-(5-NITRO-2-FURYL)VINYL]-1,2,4-OXADIAZOLE;SQL8506, 28754-68-9, Dose [Inhibitor]: 210 MG/KG 16 HR BEFORE THE 1ST CARCINOGEN DOSE FOLLOWED BY IP INJECTIONS (210 MG/KG) IMMEDIATELY BEFORE EACH DOSE OF CAR, Route [Inhibitor]: INTRAMUSCULAR/INTRAPERITONEAL, Species: MOUSE, Strain/Sex: CD-1/FEMALE, Target Tissue: Type of Lesion: LYMPHOID TISSUE: NONTHYMIC LYMPHOMA, Dose [Carcinogen]: 1 G/KG 2/D FOR 5 D EVERY 4 WK FOR 3 COURSES OF TREATMENT, Promoter: NONE USED) was 8/137 (6%), 0/28 (0%), 100%, not calculated and the “tumour outcome (control, treated, inhibition, significance)” value (Carcinogen: TRANS-5-AMINO-3-[2-(5-NITRO-2-FURYL)VINYL]-1,2,4-OXADIAZOLE;SQL8506, 28754-68-9, Carcinogen: TRANS-5-AMINO-3-[2-(5-NITRO-2-FURYL)VINYL]-1,2,4-OXADIAZOLE;SQL8506, 28754-68-9, Dose [Inhibitor]: 210 MG/KG 16 HR BEFORE THE 1ST CARCINOGEN DOSE FOLLOWED BY IP INJECTIONS (210 MG/KG) IMMEDIATELY BEFORE EACH DOSE OF CAR, Route [Inhibitor]: INTRAMUSCULAR/INTRAPERITONEAL, Species: MOUSE, Strain/Sex: CD-1/FEMALE, Target Tissue: Type of Lesion: LYMPHOID TISSUE: THYMIC LYMPHOMA, Dose [Carcinogen]: 1 G/KG 2/D FOR 5 D EVERY 4 WK FOR 3 COURSES OF TREATMENT, Promoter: NONE USED) was 22/137 (16%), 1/28 (4%), 75%, not calculated. The “tumour outcome (control, treated, inhibition, significance)” value (Carcinogen: TRANS-5-AMINO-3-[2-(5-NITRO-2-FURYL)VINYL]-1,2,4-OXADIAZOLE;SQL8506, 28754-68-9, Carcinogen: TRANS-5-AMINO-3-[2-(5-NITRO-2-FURYL)VINYL]-1,2,4-OXADIAZOLE;SQL8506, 28754-68-9, Dose [Inhibitor]: 210 MG/KG 16 HR BEFORE THE 1ST CARCINOGEN DOSE FOLLOWED BY IP INJECTIONS (210 MG/KG) IMMEDIATELY BEFORE EACH DOSE OF CAR, Route [Inhibitor]: INTRAMUSCULAR/INTRAPERITONEAL, Species: MOUSE, Strain/Sex: CD-1/FEMALE, Target Tissue: Type of Lesion: STOMACH: SQUAMOUS CARCINOMA, Dose [Carcinogen]: 1 G/KG 2/D FOR 5 D EVERY 4 WK FOR 3 COURSES OF TREATMENT, Promoter: NONE USED) was 60/137 (44%), 13/28 (46%), -4%, not calculated.
